Reference: ChEMBL document CHEMBL1201862, “PubChem BioAssay data set” (2004)
Activity calls are given as the source filed them.

Experiments:
Fatty acid synthase [1] = molecular target: T1, Fatty acid synthase (Homo sapiens, UniProt P49327); assay: FAS thioesterase domain inhibitors, dose response, biochemical, endpoint fluorescence intensity, uHTS hits (AID 624327); assay type: functional;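 further: fluorescence from hydrolysis of an O-methyl fluorescein acyl ester substrate by the enzyme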
Fatty acid synthase [2] = molecular target: T1, Fatty acid synthase; assay: FAS thioesterase domain inhibitors, dose response, biochemical, kinetic fluorescence intensity (AID 624326); assay type: functional;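 further: rate of fluorescence rise from hydrolysis of a fluorogenic O-methyl fluorescein ester substrate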
[3] = inhibitors of clade B AD8 Env fusion, dose response, cell-based, cherry-pick (AID 652062); assay type: functional;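 further: luciferase signal from cell-cell fusion driven by HIV-1 clade B AD8 Env; potency is for inhibitors of fusion seen as a drop in luminescence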
[4] = off-target signal loss in HeLa-CEM21 co-culture – HeLa F-luc CTL cells, cherry-picked, counter-screen for HIV-1 Env fusion inhibitor project, dose response (AID 652040); assay type: functional, cell-based;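 further: potency for signal decrease marking cytotoxic or nonspecific inhibition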
[5] = inhibitors of HIV Env-driven cell fusion, dose response, cherry-pick (AID 652057); assay type: functional, cell-based
[6] = ZM109 Env clade C HIV-1 fusion inhibitors, dose response, HeLa effector, CEM target cells, luciferase, cherry-pick (AID 652058); assay type: functional, cell-based
[7] = molecular target: Induced myeloid leukemia cell differentiation protein Mcl-1 (Homo sapiens, UniProt Q07820); assay type: functional
[8] = Luminescence Cell-Based Dose Response HTS to Identify Activators of Luciferase Translation or Activity in H4 […] Cells. [Related pubchem assays: 1829 (Project Summary), 1814 (Primary HTS)]; assay type: functional
[9] = Luminescence Cell-Based Dose Confirmation HTS to Identify Activators of 5'UTR Stem-Loop Driven Alpha-Synuclein mRNA Translation in H4 Neuroglioblastoma Cells. [Related pubchem assays: 1829 (Project Summary), 1814 (Primary HTS)]; assay type: functional
H4 = assay: Luminescence Cell-Based Dose Response HTS to Identify Activators of 5'UTR Stem-Loop Driven Prion Protein mRNA Translation in H4 Neuroglioblastoma Cells. [Related pubchem assays: 1829 (Project Summary), 1814 (Primary HTS)]; assay type: functional; conditions: Homo sapiens
[10] = molecular target: T2, Ubiquitin-conjugating enzyme E2 N (Homo sapiens, UniProt P61088); assay type: functional;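 further: Dose-response confirmation in a TR-FRET assay detecting UBC13-driven polyubiquitin chain formation, inhibition measured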
T2 sequence (P61088 whole entry): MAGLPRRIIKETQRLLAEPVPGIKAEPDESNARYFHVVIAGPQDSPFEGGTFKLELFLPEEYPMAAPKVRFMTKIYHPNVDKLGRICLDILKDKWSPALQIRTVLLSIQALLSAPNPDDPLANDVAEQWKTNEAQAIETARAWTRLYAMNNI

Genome polyprotein = Genome polyprotein (dengue virus type 2, UniProt P29990); assay: Dengue-2 NS5 methyltransferase inhibitors, primary screen, biochemical, confirmation dose response (AID 588689); assay type: functional
Protein RecA = molecular target: T3, Protein RecA (Mycobacterium tuberculosis, UniProt P9WHJ3); assay: Fluorescence Cell-Free Homogeneous Dose Retest to Identify Inhibitors of RecA-Intein Splicing Activity. [Related pubchem assays (depositor defined):AID2097, AID2223, AID489010, AID492950]; assay type: functional
T3 sequence (P9WHJ3 whole entry): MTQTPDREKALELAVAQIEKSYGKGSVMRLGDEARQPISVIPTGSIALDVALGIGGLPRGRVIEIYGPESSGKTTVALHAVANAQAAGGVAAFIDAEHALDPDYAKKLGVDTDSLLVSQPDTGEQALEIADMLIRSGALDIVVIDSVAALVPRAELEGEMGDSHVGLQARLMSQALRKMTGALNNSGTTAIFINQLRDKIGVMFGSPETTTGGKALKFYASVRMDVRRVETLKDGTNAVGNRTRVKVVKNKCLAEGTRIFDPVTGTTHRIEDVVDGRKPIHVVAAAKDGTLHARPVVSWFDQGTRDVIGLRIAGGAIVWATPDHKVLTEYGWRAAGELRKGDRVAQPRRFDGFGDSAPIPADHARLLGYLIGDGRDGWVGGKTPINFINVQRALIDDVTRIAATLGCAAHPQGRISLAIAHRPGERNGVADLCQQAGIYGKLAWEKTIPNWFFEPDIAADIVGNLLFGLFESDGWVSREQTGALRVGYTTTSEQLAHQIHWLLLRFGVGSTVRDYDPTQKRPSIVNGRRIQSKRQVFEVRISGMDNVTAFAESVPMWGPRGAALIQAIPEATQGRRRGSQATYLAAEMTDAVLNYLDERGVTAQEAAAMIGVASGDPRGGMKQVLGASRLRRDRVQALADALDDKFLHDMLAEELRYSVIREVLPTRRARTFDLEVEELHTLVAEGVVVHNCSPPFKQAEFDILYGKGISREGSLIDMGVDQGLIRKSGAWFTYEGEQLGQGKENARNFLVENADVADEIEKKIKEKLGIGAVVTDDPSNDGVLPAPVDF

[11] = molecular target: T4, Replicative DNA helicase DnaB (Mycobacterium tuberculosis, UniProt P9WMR3); assay: DnaB intein splicing inhibitors, dose response, biochemical, cell-free fluorescence (AID 449749); assay type: functional
T4 sequence (P9WMR3 whole entry): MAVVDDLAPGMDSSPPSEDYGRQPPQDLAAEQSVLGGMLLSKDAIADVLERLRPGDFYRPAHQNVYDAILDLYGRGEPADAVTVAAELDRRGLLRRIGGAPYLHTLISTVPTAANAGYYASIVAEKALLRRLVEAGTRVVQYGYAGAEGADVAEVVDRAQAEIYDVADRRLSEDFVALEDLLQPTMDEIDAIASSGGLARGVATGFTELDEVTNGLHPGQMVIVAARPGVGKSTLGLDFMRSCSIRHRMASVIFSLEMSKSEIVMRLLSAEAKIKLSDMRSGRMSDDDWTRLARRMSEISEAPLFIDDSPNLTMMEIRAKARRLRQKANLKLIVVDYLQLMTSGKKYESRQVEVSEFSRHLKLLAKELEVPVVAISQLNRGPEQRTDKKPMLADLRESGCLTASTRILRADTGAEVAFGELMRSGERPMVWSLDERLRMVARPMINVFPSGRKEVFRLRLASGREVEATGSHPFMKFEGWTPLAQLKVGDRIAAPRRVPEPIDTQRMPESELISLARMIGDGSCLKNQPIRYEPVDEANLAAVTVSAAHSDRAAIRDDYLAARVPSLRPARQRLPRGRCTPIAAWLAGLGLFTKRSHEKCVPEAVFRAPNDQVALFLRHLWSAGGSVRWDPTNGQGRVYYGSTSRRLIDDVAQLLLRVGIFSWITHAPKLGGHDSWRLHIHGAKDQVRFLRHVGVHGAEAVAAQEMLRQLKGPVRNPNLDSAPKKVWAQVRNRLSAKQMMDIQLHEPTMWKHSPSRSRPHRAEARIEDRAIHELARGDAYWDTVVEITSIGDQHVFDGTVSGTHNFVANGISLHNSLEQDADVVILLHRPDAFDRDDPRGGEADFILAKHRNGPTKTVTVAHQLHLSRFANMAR

[12] = Luminescence Cell-Based Dose Retest to Confirm Inhibitors of Cancer Stem Cells. [Related pubchem assays (depositor defined):AID2717, AID2721]; assay type: functional; conditions: Homo sapiens
cells [13] = assay type: functional, cell-based
cells [14] = assay type: functional, cell-based; remark: listed apart in the source
[15] = inhibitors of SNCA 5'UTR-driven reporter translation, confirmation, H4 neuroglioma cells, luminescence (AID 1988); assay type: functional, cell-based
[16] = inhibitors of firefly luciferase expression or activity, dose response, H4 neuroglioma cells, luminescence (AID 1990); assay type: functional, cell-based
[17] = Luminescence Cell-Based Dose Response HTS to Identify Inhibitors of 5'UTR Stem-Loop Driven Prion Protein mRNA Translation in H4 Neuroglioblastoma Cells. [Related pubchem assays: 1827 (Project Summary), 1813 (Primary HTS)]; assay type: functional
[18] = C. albicans growth with fluconazole, confirmation, fluorescence, retest (AID 2467); assay type: functional, cell-based
[19] = cytotoxicity toward NIH3T3 fibroblasts, dose response, counter-screen, cell-based, ATP luminescence, mouse fibroblasts (AID 2010); assay type: functional;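 further: cells exposed to compound for about 90 hours before reading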
[20] = inhibitors of intracellular T. cruzi replication, confirmation, NIH3T3 host cells, beta-gal luminescence (AID 2044); assay type: functional, cell-based;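 further: intracellular parasites grown in NIH/3T3 mouse fibroblasts as host cells; luminescent beta-galactosidase reporter signal from transgenic T. cruzi replicating inside host cells; inhibitors lower the luminescence signal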
[21] = NIH-3T3 fibroblast cytotoxicity, dose response, cytotoxicity control, cell-based, fluorescence, Alamar Blue, secondary assay (AID 2327); assay type: functional;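 further: NIH-3T3 mouse fibroblasts cultured with fluconazole at 8 µg/mL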

Cc1cccc(NC(=O)CSc2nc3c(oc4ccccc43)c(=O)n2-c2ccccc2)c1
IC50 (Fatty acid synthase [1]): 25.6 µM (inactive) | IC50 (Fatty acid synthase [2]): 51.3 µM (inactive)

Cc1ccc(S(=O)(=O)N(C)C)cc1NC(=O)COc1ccccc1C(=O)Nc1ccccc1
AC50 [3]: 8.41 µM (active) | AC50 [4]: 3.87 µM (active) | AC50 [5]: 1.78 µM (active) | AC50 [6]: 2.56 µM (active)

CNc1sc(C(=O)c2ccc(F)cc2)c(N)c1-c1nc2ccccc2s1
IC50 [7]: 2.45 µM (active)

O=C(C1CCCCC1)N1CCCC(c2nc(O)c3nnn(Cc4ccccc4)c3n2)C1 (stereo unspecified)
AC50 [4]: > 70 µM (inactive) | AC50 [5]: 11.1 µM (active) | AC50 [6]: 18.5 µM (active)

O=C(/C=C/c1cccc([N+](=O)[O-])c1)NCCSCc1ccco1
IC50 (Fatty acid synthase [1]): 6.86 µM (active) | IC50 (Fatty acid synthase [2]): 10.1 µM (active)

CC(C)(C)C1=CC=C(C(C)(C)C)C(=O)C1=O
EC50 [8]: > 120 µM (not active) | IC50 [7]: 3.86 µM (active) | EC50 [9]: > 120 µM (not active) | EC50 (H4): > 120 µM (not active)

CC(=O)c1ccc(OCCCC(=O)NNC(=O)c2ccccn2)cc1
IC50 [10]: > 20 µM (inactive)

Cc1ccccc1N1C(=O)C(Cl)=C(N2CCOCC2)C1=O
IC50 (Genome polyprotein): 43.7 µM (active) | EC50 (Protein RecA): 4.98 µM (active) | AC50 [11]: 13 µM (active)

CC(C)(C)C1CCC(CN2C(Nc3ccccc3)=NC[C@@H]2Cc2ccccc2)CC1 (stereo partly specified)
IC50 [10]: > 20 µM (inactive) | AC50 [12]: 6.47 µM (active)

CCOP(=O)(C#CC(C)(C)C)C1(O)CCCCC1 (stereo unspecified)
EC50 (cells [13]): > 350 µM (not active) | EC50 (cells [14]): > 350 µM (not active)

CC[C@@]12C(=O)N(c3ccc(OC)cc3)C(=O)N1[C@H](c1ccc(Cl)cc1)[C@@H]1C(=O)N(C3CCCCC3)C(=O)[C@@H]12
AC50 [3]: 0.607 µM (active) | AC50 [4]: 0.407 µM (active) | AC50 [5]: < 0.26 µM (active) | AC50 [6]: 0.379 µM (active)

CCN1C(=O)[C@H]2[C@@H](c3ccc(C)cc3)N3C(=O)N(c4cccc(Br)c4)C(=O)[C@@]3(CC(C)C)[C@H]2C1=O
AC50 [3]: 0.672 µM (active) | AC50 [4]: 0.382 µM (active) | AC50 [5]: 0.26 µM (active) | AC50 [6]: 0.374 µM (active)

COc1cc(C(=O)NCCc2nc3ccccc3n2C)cc(OC)c1OC
EC50 (cells [13]): > 350 µM (not active) | EC50 (cells [14]): > 350 µM (not active)

CCn1c(SCC(=O)Nc2nncs2)nnc1-c1ccco1
EC50 (cells [13]): > 350 µM (not active) | EC50 (cells [14]): > 350 µM (not active)

COc1ccc(C(CC(=O)Nc2cc([N+](=O)[O-])ccc2OC)c2ccccc2)cc1 (stereo unspecified)
IC50 (Fatty acid synthase [1]): 12.9 µM (active) | IC50 (Fatty acid synthase [2]): 12.5 µM (active)

C/C=C\C=C/C(=O)Nc1cccc(C2=NOC3(C2)C[C@@H](C(N)=O)N(C(=O)c2ccccc2)C3)c1 (stereo partly specified)
IC50 [7]: 6.9 µM (not active)

Cc1ccc(-n2nc3c(c2NC(=O)c2ccco2)C[S+]([O-])C3)cc1 (stereo unspecified)
AC50 [4]: 7.72 µM (active)

CCOC(=O)c1cc(-c2ccc(OC)cc2F)nc2c1c(C)nn2CCC#N
EC50 [15]: 23.3 µM (active) | IC50 [10]: > 20 µM (inactive) | EC50 [16]: 17.7 µM (active) | EC50 [17]: 20.2 µM (active)

Cc1ccc(C(=O)NCCSC(C)(C)C)cc1[N+](=O)[O-]
IC50 (Fatty acid synthase [1]): 11.7 µM (active) | IC50 (Fatty acid synthase [2]): 8.25 µM (active)

CCNC(=O)c1ccccc1NC(=O)c1cccc(S(=O)(=O)N2CCC(C)CC2)c1
IC50 [10]: > 20 µM (inactive)

CCc1cccc(NC(=O)C2CCN(S(=O)(=O)c3ccc4c(c3)CC(C)N4C(C)=O)CC2)c1 (stereo unspecified)
AC50 [3]: 10.6 µM (active) | AC50 [4]: 48.5 µM (active) | AC50 [5]: 30.3 µM (active) | AC50 [6]: 6.68 µM (active)

COC(=O)[C@@]12CCCN1[C@H](c1ccc(-c3ccc(F)cc3)c(OC)c1)[C@H]1C(=O)N(C)C(=O)[C@H]12
AC50 [3]: 25.5 µM (active) | AC50 [5]: 2.93 µM (active) | AC50 [6]: 1.38 µM (active)

CC[C@H](C)Cc1cn([C@@H](CCCN=C(NC(=O)OC(C)(C)C)NC(=O)OC(C)(C)C)C(=O)NCCCCCCCCCCC(=O)N2CCN(C(=O)OC(C)(C)C)CC2)nn1
IC50 [10]: > 20 µM (inactive) | EC50 [18]: > 38 µM (not active) | EC50 [19]: > 30 µM (not active) | EC50 [20]: 1.04 µM (active) | EC50 [21]: 83.3 µM (inconclusive)

COc1ccc(S(=O)(=O)Nc2ccc3c(c2)CC(=O)N([C@H](C)CO)C[C@H](C)[C@H](CN(C)S(=O)(=O)c2ccc(F)cc2)O3)cc1
AC50 [3]: 10.6 µM (active) | AC50 [5]: 0.384 µM (active)
